Measured values: publication PMC9887599, “Synthesis, Optical Properties, and Antiproliferative Evaluation of NBD-Triterpene Fluorescent Probes” (Journal of Natural Products, 2022)

Key:
B16-F10 murine melanoma = assay: MTT cell-viability assay, B16-F10; format: cell-based; conditions: Mus musculus, 72 h, untreated control cells as 100% viability
Description: (§1) The cytotoxic effects of 12 NBD-Aa-triterpene conjugates (1–12) were tested on three different cancer cell lines as a representation of cancers from different tissues and organs (B16-F10 murine melanoma, HT-29 human colon adenocarcinoma, and HepG2 human hepatocyte carcinoma). Cell viability was determined by MTT colorimetric analysis, with increasing concentration levels of each compound (0–200 μg/mL) and incubation for 72 h. The MTT assay was based on the metabolic reduction of 3-(4,5-dimethylthiazol-2-yl)-2,5-diphenyltetrazolium bromide (MTT) to a violet-colored compound (formazan), with a maximum absorbance at 570 nm. Cell viability was proportional to the amount of formazan and was expressed as the percentage of viable treated cells relative to untreated control cells. The concentration at which the derivatives halved the number of viable cells in the three cancer lines (IC50) was determined. […] These NBD conjugates of BO or BM also had higher IC50 values than their precursors (BO or BM), even in NBD conjugates with the shortest-chain ω-amino acid linker (6AHA) (Table 2). Due to these high IC50 values, all of these NBD-conjugated compounds were discarded for further cytometric studies.
(§2) The effect of the synthesized compounds on the viability of tumor cells was assessed using the MTT assay, based on the ability of living cells to metabolically reduce 3-(4,5-dimethylthiazole)-2,5-diphenyltetrazole bromide, rendering formazan, a colored compound with a maximum absorbance of 570 nm. To study the cytotoxic effects of the compounds in the three cancer cell lines, the different lines were seeded in 96-well plates at a cell density per well of 5 × 10^3 for B16-F10, 6 × 10^3 for HT-29, and 15 × 10^3 for HepG2. After seeding, the plates were grown for 24 h and subsequently treated in triplicate with different compounds at different concentrations (0–200 μg/mL) for 72 h. After this time, the cells were stained by adding 100 mL of MTT (0.5 mg/mL) per well and incubated for 1 h. Subsequently, the cells were washed with phosphate-buffered saline (PBS), and formazan was resuspended in 100 μL of DMSO per well. Cell viability was measured by absorbance at 550 nm in an ELISA plate reader (Tecan Sunrise MR20–301, TECAN, Austria).
(§3) For this, Sigmaplot 12.5 software was used, and all quantitative data were expressed as means ± standard deviation (SD). All data shown are representative of at least two independent experiments performed in triplicate.

[1] = test system: HT-29 human colon adenocarcinoma; assay: MTT cell-viability assay, HT-29; format: cell-based; conditions: 72 h, untreated control cells as 100% viability
Description: as §1, §2, §3

[2] = test system: HepG2 human hepatocyte carcinoma; assay: MTT cell-viability assay, HepG2; format: cell-based; conditions: 72 h, untreated control cells as 100% viability
Description: as §1, §2, §3

[3] = test system: HPF human pulmonary fibroblasts; assay: MTT cytotoxicity on nontumor cells, HPF; format: cell-based; conditions: for IC50: Homo sapiens, Pulmonary fibroblast, MTT assay, nontumor cells; for SI (selectivity index, IC50 nontumor cells/IC50 cancer cells), HPF: column beside HPF
Description: (§4) Due to their greater cytotoxic activity, NBD conjugates 1 and 2 were selected to analyze their cytotoxic effects on healthy cells, using nontumor cell lines (HPF human pulmonary fibroblasts, IEC-18 epithelial rat ileum cells, and WRL68 human embryonic hepatic cells) (Table 3). The selectivity indices (SI) of the NBD-Aa-triterpene conjugates 1 and 2 were calculated with the formula: IC50 nontumor cells/IC50 cancer cells. Additionally, cell-viability percentages in the nontumor cells were measured, which ranged in most cases between 75 and 90%.
as §2, §3

[4] = test system: IEC-18 epithelial rat ileum cells; assay: MTT cytotoxicity on nontumor cells, IEC-18; format: cell-based; conditions: for IC50: Rattus norvegicus, IEC-18, MTT assay, nontumor cells; for SI (selectivity index, IC50 nontumor cells/IC50 cancer cells), IEC-18: column beside IEC-18
Description: as §4, §2, §3

[5] = test system: WRL68 human embryonic hepatic cells; assay: MTT cytotoxicity on nontumor cells, WRL68; format: cell-based; conditions: for IC50: Homo sapiens, WRL68, MTT assay, nontumor cells; for SI (selectivity index, IC50 nontumor cells/IC50 cancer cells), WRL68: column beside WRL68
Description: as §4, §2, §3

[6] = Cell-viability percentages in nontumor cells, summary; format: cell-based; conditions: human, rat; in most cases
Description: as §4
as §2, with “After this time, the cells were stained by adding 100 mL of MTT (0.5 mg/mL) per well and incubated for 1 h. Subsequently, the cells were washed with phosphate-buffered saline (PBS), and formazan was resuspended in 100 μL of DMSO per well.” left out

[7] = Absorption and fluorescence spectroscopy (photophysical data); format: physicochemical; conditions: DMSO, 25 °C; for τ (half-life time of fluorescence): 485 nm pulsed LED; for Φ (fluorescence quantum yield): Coumarin 6 as standard; for (λem)max: excitation at 480 nm
B16-F10 cells = assay: Annexin V/propidium iodide flow cytometry of cell death, B16-F10; format: cell-based, mouse; conditions: B16-F10, at IC50 concentration, after 72 h
Description: (§5) NBD-6AHA-triterpene conjugates 1 and 2 were selected for the characterization of their cytotoxic effects on the three cancer cell lines used. The percentages of cell death were determined using the concentrations corresponding to the IC50 values for each compound in the three cancer cell lines (B16-F10, HT-29, and HepG2). This study was conducted by flow cytometry, using double staining with DY634 annexin V/propidium iodide, which allows the identification and quantification of intact, apoptotic, or necrotic cells. Annexin DY634 (red fluorescence) is an apoptotic marker due to its ability to bind to phosphatidylserine exposed on the external cell surface. Propidium iodide (orange fluorescence) is a DNA marker that is capable of penetrating only when the cell is damaged, differentiating late apoptotic or necrotic cells from apoptotic ones. These conjugates (1 and 2) are green fluorescent probes, not causing interference in the fluorescence.
(§6) The apoptosis studies were conducted at 4, 24, and 72 h (Figure 5).
(§7) Cell death (apoptosis) was studied by flow cytometry using a FACScan (fluorescence-activated cell sorter) flow cytometer (Coulter Corporation, Hialeah, FL). […] In each experiment, approximately 10 × 10^3 cells were analyzed, and the experiment was duplicated twice.

HT-29 cells = assay: Annexin V/propidium iodide flow cytometry of cell death, HT-29; format: cell-based, human; conditions: HT-29, at IC50 concentration, after 72 h
Description: as §5, §6, §7

HepG2 cells = assay: Annexin V/propidium iodide flow cytometry of cell death, HepG2; format: cell-based, human; conditions: HepG2, at IC50 concentration, after 72 h
Description: as §5, §6, §7

[8] = set-up: method as in PMID 26512635; conditions: ethanol solution ref 45; cited from earlier work

SMILES | IC50 (B16-F10 murine melanoma) [µM] | IC50 [1] [µM] | IC50 [2] [µM] | IC50 [3] [µM] | SI (selectivity index, IC50 nontumor cells/IC50 cancer cells), HPF [3] | IC50 [4] [µM] | SI (selectivity index, IC50 nontumor cells/IC50 cancer cells), IEC-18 [4] | IC50 [5] [µM] | SI (selectivity index, IC50 nontumor cells/IC50 cancer cells), WRL68 [5] | viability at 72 h [6] [%] | ε (molar extinction coefficient) [7] [M^–1 cm^–1] | τ (half-life time of fluorescence) [7] [ns] | Φ (fluorescence quantum yield) [7] | (λem)max [7] [nm] | percentage of apoptosis (B16-F10 cells) [%] | percentage of apoptosis (HT-29 cells) [%] | percentage of apoptosis (HepG2 cells) [%] | (λabs)max [7] [nm] | ΦF of the standard sample [8]
CC1(C)CC[C@]2(C(=O)O)CC[C@]3(C)C(=CC[C@@H]4[C@@]5(C)CC[C@H](OC(=O)CCCCCNc6ccc([N+](=O)[O-])c7nonc67)C(C)(C)[C@@H]5CC[C@]43C)[C@@H]2C1 [Compound 1, 3β-((6-((7-Nitrobenzo[c][1,2,5]oxadiazol-4-yl)amino)hexanoyl)oxy)olean-12-en-28-oic Acid] | 2.4 ± 0.1 | 19.5 ± 0.1 | 12.5 ± 0.1 | 39.7 ± 1.2 | 17 | 41 ± 0.3 | 2 | 37.9 ± 0.2 | 3 | 75 to 90 | 2539 | 7.712 | 0.76 | 546 |  |  |  |  | 
CC1(C)CC[C@]2(C(=O)O)CC[C@]3(C)C(=CC[C@@H]4[C@@]5(C)C[C@@H](OC(=O)CCCCCNc6ccc([N+](=O)[O-])c7nonc67)[C@H](O)C(C)(C)[C@@H]5CC[C@]43C)[C@@H]2C1 [Compound 2, 3β-Hydroxy-2α-((6-((7-nitrobenzo[c][1,2,5]oxadiazol-4-yl)amino)hexanoyl)oxy)olean-12-en-28-oic Acid] | 4.9 ± 0.4 | 6.6 ± 0.1 | 13.9 ± 0.6 | 14.8 ± 1.5 | 3 | 14.7 ± 0.7 | 2 | 10 ± 0.3 | 1 | 75 to 90 | 3166 | 7.681 | 0.71 | 546 | 48 | 55 | 53 | 480 | 
CCN(CC)c1ccc2cc(-c3nc4ccccc4s3)c(=O)oc2c1 [Coumarin 6] |  |  |  |  |  |  |  |  |  |  |  |  |  |  |  |  |  |  | 0.78
